Assay results: patent US6133319A, “IL-8 receptor antagonists” (SmithKline Beecham Corporation, priority 1999, dated 2000)

Each compound was assayed against T1, recombinant human IL-8 type b receptor (IL-8 Rb, Type II, permissive receptor) (Homo sapiens, UniProt P25025) (assay: Receptor binding assay, [125I] IL-8 binding to IL-8 Rb (Type II, permissive) receptor membranes). Settings: recombinant IL-8 Rb (Type II) CHO membranes.
T1 sequence (P25025 1-360): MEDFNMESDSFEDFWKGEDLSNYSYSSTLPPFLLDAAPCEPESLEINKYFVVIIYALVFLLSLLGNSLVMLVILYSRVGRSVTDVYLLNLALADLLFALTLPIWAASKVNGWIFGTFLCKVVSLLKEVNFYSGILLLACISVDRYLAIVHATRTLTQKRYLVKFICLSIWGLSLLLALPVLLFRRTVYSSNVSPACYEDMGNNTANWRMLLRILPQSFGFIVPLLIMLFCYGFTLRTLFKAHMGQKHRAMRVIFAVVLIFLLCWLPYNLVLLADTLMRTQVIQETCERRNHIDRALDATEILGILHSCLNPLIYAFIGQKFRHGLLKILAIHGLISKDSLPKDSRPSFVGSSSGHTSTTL
Experimental: The IL-8, and Gro-a chemokine inhibitiory effects of compounds of the present invention were determined by the following in vitro assay:
[^125 I] IL-8 (human recombinant) was obtained from Amersham Corp., Arlington Heights, Ill., with specific activity 2000 Ci/mmol. Gro-a was obtained from NEN- New England Nuclear. All other chemicals were of analytical grade. High levels of recombinant human IL-8 type a and b receptors were individually expressed in Chinese hamster ovary cells as described previously (Holmes, et al., Science, 1991, 253, 1278). The Chinese hamster ovary membranes were homogenized according to a previously described protocol (Haour, et al., J Biol Chem., 249 pp 2195-2205 (1974)). Except that the homogenization buffer was changed to 10 mM Tris-HCl, 1 mM MgS04, 0.5 mM EDTA (ethylene-diaminetetraacetic acid), 1 mM PMSF (a-toulenesulphonly flouride), 0.5 mg/L Leupeptin, pH 7.5. Membrane protein concentration was determined using Pierce Co. micro-assay kit using bovine serum albumin as a standard. All assays were performed in a 96-well micro plate format. Each reaction mixture contained ^125 I IL-8 (0.25 nM) or ^125 I Gro-a and 0.5 μg/mL of IL-8Ra or 1.0 μg/mL of IL-8Rb membranes in 20 mM Bis-Trispropane and 0.4 mM Tris HCl buffers, pH 8.0, containing 1.2 mM MgSO4, 0.1 mM EDTA, 25 mM NaCl and 0.03% CHAPS. In addition, drug or compound of interest was added which had been pre-dissolved in DMSO so as to reach a final concentration of between 0.01 nM and 100 uM. The assay was initiated by addition of ^125 I-IL-8. After 1 hour at room temperature the plate was harvested using a Tomtec 96-well harvester onto a glass fiber filtermat blocked with 1% polyethylenimine/0.5% BSA and washed 3 times with 25 mM NaCl, 10 mM TrisHCl, 1 mM MgSO4, 0.5 mM EDTA, 0.03% CHAPS, pH 7.4. The filter was then dried and counted on the Betaplate liquid scintillation counter. The recombinant IL-8 Ra, or Type I, receptor is also referred to herein as the non-permissive receptor and the recombinant IL-8 Rb, or Type II, receptor is referred to as the permissive receptor.

Activity in the permissive models for IL-8 receptor inhibition (result in words), inactive:
CC(C)(COCc1ccccc1)NC(=O)Nc1ccc([N+](=O)[O-])cc1O [Example 6, N-(1,1-Dimethyl-2-benzoxyethyl)-N'-(2-hydroxy-4-nitrophenyl)urea]
CC(C)OCCNC(=O)Nc1ccc([N+](=O)[O-])cc1O [N-(ethylisopropylether)-N'-(2-hydroxy-4-nitro-phenyl)urea]
N#Cc1ccc(NC(=O)N[C@@H]2CCCC[C@H]2OCc2ccccc2)c(NS(=O)(=O)c2ccccc2)c1 (relative stereo) [N-trans-(2-benzyloxycyclohexyl)-N'-((2-benzenesulfonylamino)4-cyanophenyl))urea]
O=C(O)CCNC(=O)Nc1ccc([N+](=O)[O-])cc1O [N-(2-carboxyethyl)-N'-(2-hydroxy-4-nitrophenyl)urea]
